Source: PubChem BioAssay AID2060887 (Molecular Pharmacology Branch, DTP, NCI, 2025)
pIC50: −log10 of the molar value.

Tested on: 782815-120-R-J1-PDC complex spheroid viability
Assay: Anticancer human tumor 782815-120-R-J1-PDC patient-derived colon adenocarcinoma cell line growth inhibition [RAS]
Conditions: for viability, T/C: stronger effect = lower value
In short: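 Agents were tested in combination matrices in half-log decrements from a top concentration at or near clinical Cmax (10 microM if undetermined). Targets were multi-cell spheroids of tumour lines plus HUVEC and MSC stromal cells.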
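Further: spheroids exposed to compounds for 7 days before reading.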
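Wherever viability, T/C is given: 100% = DMSO vehicle control viability.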

Compound: CC(C)n1nc(-c2ccc3oc(N)nc3c2)c2c(N)ncnc21 + C=CC(=O)N1CCN(c2nc(OCC3CCCN3C)nc3c(F)c(-c4nc(N)cc(C)c4C(F)(F)F)c(Cl)cc23)C(C)C1
- pIC50 (curve of first compound, second compound 0.00316 µM): < 7.00
- pIC50 (curve of first compound, second compound 0.01 µM): < 7.00
- pIC50 (curve of first compound, second compound 0.0316 µM): < 7.00
- pIC50 (curve of first compound, second compound 0.1 µM): < 7.00
- pIC50 (curve of first compound, second compound 0.316 µM): < 7.00
- pIC50 (curve of first compound, second compound 1 µM): < 7.00
- viability, T/C (second compound 0.00316 µM, first compound 0.000316 µM): 101%
- viability, T/C (second compound 0.00316 µM, first compound 0.001 µM): 101%
- viability, T/C (second compound 0.00316 µM, first compound 0.00316 µM): 96.1%
- viability, T/C (second compound 0.00316 µM, first compound 0.01 µM): 91.7%
- viability, T/C (second compound 0.00316 µM, first compound 0.0316 µM): 90.2%
- viability, T/C (second compound 0.00316 µM, first compound 0.1 µM): 93.1%
- viability, T/C (second compound 0.01 µM, first compound 0.000316 µM): 99.8%
- viability, T/C (second compound 0.01 µM, first compound 0.001 µM): 95.9%
- viability, T/C (second compound 0.01 µM, first compound 0.00316 µM): 100%
- viability, T/C (second compound 0.01 µM, first compound 0.01 µM): 89.1%
- viability, T/C (second compound 0.01 µM, first compound 0.0316 µM): 92.7%
- viability, T/C (second compound 0.01 µM, first compound 0.1 µM): 95.5%
- viability, T/C (second compound 0.0316 µM, first compound 0.000316 µM): 101%
- viability, T/C (second compound 0.0316 µM, first compound 0.001 µM): 102%
- viability, T/C (second compound 0.0316 µM, first compound 0.00316 µM): 98.7%
- viability, T/C (second compound 0.0316 µM, first compound 0.01 µM): 95.8%
- viability, T/C (second compound 0.0316 µM, first compound 0.0316 µM): 92.2%
- viability, T/C (second compound 0.0316 µM, first compound 0.1 µM): 91.4%
- viability, T/C (second compound 0.1 µM, first compound 0.000316 µM): 98.7%
- viability, T/C (second compound 0.1 µM, first compound 0.001 µM): 102%
- viability, T/C (second compound 0.1 µM, first compound 0.00316 µM): 91.3%
- viability, T/C (second compound 0.1 µM, first compound 0.01 µM): 92.1%
- viability, T/C (second compound 0.1 µM, first compound 0.0316 µM): 105%
- viability, T/C (second compound 0.1 µM, first compound 0.1 µM): 92.6%
- viability, T/C (second compound 0.316 µM, first compound 0.000316 µM): 97.5%
- viability, T/C (second compound 0.316 µM, first compound 0.001 µM): 105%
- viability, T/C (second compound 0.316 µM, first compound 0.00316 µM): 95.1%
- viability, T/C (second compound 0.316 µM, first compound 0.01 µM): 102%
- viability, T/C (second compound 0.316 µM, first compound 0.0316 µM): 92.8%
- viability, T/C (second compound 0.316 µM, first compound 0.1 µM): 94.7%
- viability, T/C (second compound 1 µM, first compound 0.000316 µM): 104%
- viability, T/C (second compound 1 µM, first compound 0.001 µM): 104%
- viability, T/C (second compound 1 µM, first compound 0.00316 µM): 91.5%
- viability, T/C (second compound 1 µM, first compound 0.01 µM): 96.9%
- viability, T/C (second compound 1 µM, first compound 0.0316 µM): 94.1%
- viability, T/C (second compound 1 µM, first compound 0.1 µM): 87.7%

Compound: CCn1c(-c2cccnc2C(C)OC)c2c3cc(ccc31)N1CCOC(CC(NC(=O)C(C(C)C)N(C)C(=O)C3(F)CCN(C(=O)C#CC(C)(C)N(C)C)CC3)C(=O)N3CCCC(N3)C(=O)OCC(C)(C)C2)C1 (centres undefined)
- viability, T/C (compound 0.000949 µM): 95.4% [middle of 8 runs]
- viability, T/C (compound 0.003 µM): 100% [middle of 8 runs]
- viability, T/C (compound 0.00949 µM): 95.8% [middle of 8 runs]
- viability, T/C (compound 0.03 µM): 98.5% [middle of 8 runs]
- viability, T/C (compound 0.0949 µM): 96.5% [middle of 8 runs]
- viability, T/C (compound 0.3 µM): 89.1% [middle of 8 runs]
- pIC50 (compound alone, run of 07/09/2024): < 6.52
